In US12569509B2, “Method and composition for preventing and treating viral infections” (priority 2017, dated 2026):
Entries after “also recorded” stand apart in the source; their conditions may differ.

Columns and labels:
[1] = system: human PBMC; assay: LPS stimulated cytokine secretion in human PBMC pretreated with compounds (Phase 2); type: cell-based; design: TNF-α concentration in supernatant / IL-1β concentration in supernatant / IL-6 concentration in supernatant / IL-2 concentration in supernatant / IFN-g concentration in supernatant: unit of the concentration uncertain; settings: for Effect on LPS stimulated secretion of IL-1b / Effect on LPS stimulated secretion of IL-6: 200 mM (so in the source), 2 h pretreatment, 1 ng/mL LPS 8 hours; for IL-2 concentration in supernatant / TNF-α concentration in supernatant / IL-1β concentration in supernatant / IFN-g concentration in supernatant / IL-6 concentration in supernatant: 8-hour 1 ng/mL LPS stimulation; for IL-2 concentration in supernatant: LLOQ = 1.698 pg/mL; for TNF-α concentration in supernatant: LLOQ = 2.018 pg/mL; for IL-1β concentration in supernatant: LLOQ = 2.299 pg/mL; for IFN-g concentration in supernatant: LLOQ = 2.792 pg/mL; for IL-6 concentration in supernatant: LLOQ = 0.831
Source text: Results are represented as fold-change relative to LPS treatment alone for each cytokine calculated by means from 3 separate donors.
RPMI medium alone, RPMI supplemented with 0.2% DMSO (to mimic treatment conditions) or LPS stimulation alone were used as controls.
Except for the two negative control conditions, all 3 donors responded to all experimental conditions tested with the secretion of TNF-α, IL-1β, and IL-6 albeit with a high degree of variability.

[2] = system: human PBMC; assay: Test compound induced cytokine secretion in human PBMC without LPS, 10 or 26 hours (Phase 1); settings: 100 mM (so in the source), 10 hours, no LPS
Protocol: Secretion of the cytokines TNF-α (A), IL-1β (B) and IL-6 (C) were measured in supernatant of PBMC cultured in the presence of test compounds using a Luminex platform with the Milliplex MAP Human High Sensitivity T Cell Panel Immunology Multiplex Assay. Results are represented as a mean from 3 separate donors in pg/mL.
Whole blood was collected from 3 human donors and peripheral blood mononuclear cells (PBMC) were isolated using the Ficoll-Paque density gradient method. PBMC were then plated and left untouched for 2 hours to account for a 2 hours pretreatement period (see below for details), and incubated for 8 or 24 hours in a humidified incubator set to maintain 37° C. with 5% CO2, with different concentrations of LPS as per Table 11 in order to determine the optimal stimulation conditions to detect cytokine release. […] RPMI medium alone or supplemented with 0.1% DMSO (to mimic treatment conditions) were used as negative controls.
At the end of the incubation period, supernatant samples were recovered and stored at −80° C. until analysis (in duplicate) using a Luminex platform with the Milliplex MAP Human High Sensitivity T Cell Panel Immunology Multiplex Assay (Cat. No. HSTCMAG-28SK) with the following selected cytokines of interest: IL-1, IL-2, IL-6, IFN-g and TNF-α. Each assay was defined by one calibration curve and 2 sets of QCs and the results were expressed as pg/mL.

SMILES: O=C(O)c1cc(O)c(O)c(O)c1 [Gallic Acid, Gallic acid]
- Effect on LPS stimulated secretion of IL-1b [1]: inhibition
- Effect on LPS stimulated secretion of IL-6 [1]: inhibition
- Effect on LPS stimulated secretion of IL-1b ([1]; listed as gallic acid): decrease; also recorded: inhibits
- Effect on LPS stimulated secretion of IL-6 ([1]; listed as gallic acid): decrease; also recorded: inhibits
- IL-2 concentration in supernatant ([1]; Donor 1, 10 (unit uncertain)): <LLOQ
- TNF-α concentration in supernatant ([1]; Donor 1, 10 (unit uncertain)): 2295.37 pg/mL
- IL-1β concentration in supernatant ([1]; Donor 1, 10 (unit uncertain)): 4009.57 pg/mL
- IFN-g concentration in supernatant ([1]; Donor 1, 10 (unit uncertain)): <LLOQ
- IL-6 concentration in supernatant ([1]; Donor 1, 10 (unit uncertain)): 1244.44 pg/mL
- IL-2 concentration in supernatant ([1]; Donor 1, 100 (unit uncertain)): <LLOQ
- TNF-α concentration in supernatant ([1]; Donor 1, 100 (unit uncertain)): 2673.83 pg/mL
- IL-1β concentration in supernatant ([1]; Donor 1, 100 (unit uncertain)): 2029.63 pg/mL
- IFN-g concentration in supernatant ([1]; Donor 1, 100 (unit uncertain)): <LLOQ
- IL-6 concentration in supernatant ([1]; Donor 1, 100 (unit uncertain)): 776.23 pg/mL
- IL-2 concentration in supernatant ([1]; Donor 1, 200 (unit uncertain)): <LLOQ
- TNF-α concentration in supernatant ([1]; Donor 1, 200 (unit uncertain)): 1973.87 pg/mL
- IL-1β concentration in supernatant ([1]; Donor 1, 200 (unit uncertain)): 905.16 pg/mL
- IFN-g concentration in supernatant ([1]; Donor 1, 200 (unit uncertain)): <LLOQ
- IL-6 concentration in supernatant ([1]; Donor 1, 200 (unit uncertain)): 466.09 pg/mL
- IL-2 concentration in supernatant ([1]; Donor 2, 10 (unit uncertain)): <LLOQ
- TNF-α concentration in supernatant ([1]; Donor 2, 10 (unit uncertain)): 924.89 pg/mL
- IL-1β concentration in supernatant ([1]; Donor 2, 10 (unit uncertain)): 2259.03 pg/mL
- IFN-g concentration in supernatant ([1]; Donor 2, 10 (unit uncertain)): <LLOQ
- IL-6 concentration in supernatant ([1]; Donor 2, 10 (unit uncertain)): 547.26 pg/mL
- IL-2 concentration in supernatant ([1]; Donor 2, 100 (unit uncertain)): <LLOQ
- TNF-α concentration in supernatant ([1]; Donor 2, 100 (unit uncertain)): 2001.65 pg/mL
- IL-1β concentration in supernatant ([1]; Donor 2, 100 (unit uncertain)): 1867.42 pg/mL
- IFN-g concentration in supernatant ([1]; Donor 2, 100 (unit uncertain)): <LLOQ
- IL-6 concentration in supernatant ([1]; Donor 2, 100 (unit uncertain)): 694.6 pg/mL
- IL-2 concentration in supernatant ([1]; Donor 2, 200 (unit uncertain)): <LLOQ
- TNF-α concentration in supernatant ([1]; Donor 2, 200 (unit uncertain)): 1867.55 pg/mL
- IL-1β concentration in supernatant ([1]; Donor 2, 200 (unit uncertain)): 858.76 pg/mL
- IFN-g concentration in supernatant ([1]; Donor 2, 200 (unit uncertain)): <LLOQ
- IL-6 concentration in supernatant ([1]; Donor 2, 200 (unit uncertain)): 426.3 pg/mL
- IL-2 concentration in supernatant ([1]; Donor 3, 10 (unit uncertain)): <LLOQ
- TNF-α concentration in supernatant ([1]; Donor 3, 10 (unit uncertain)): 4990.73 pg/mL
- IL-1β concentration in supernatant ([1]; Donor 3, 10 (unit uncertain)): 4065.13 pg/mL
- IFN-g concentration in supernatant ([1]; Donor 3, 10 (unit uncertain)): <LLOQ
- IL-6 concentration in supernatant ([1]; Donor 3, 10 (unit uncertain)): 547.26 pg/mL
- IL-2 concentration in supernatant ([1]; Donor 3, 100 (unit uncertain)): <LLOQ
- TNF-α concentration in supernatant ([1]; Donor 3, 100 (unit uncertain)): 3070.21 pg/mL
- IL-1β concentration in supernatant ([1]; Donor 3, 100 (unit uncertain)): 1788.4 pg/mL
- IFN-g concentration in supernatant ([1]; Donor 3, 100 (unit uncertain)): <LLOQ
- IL-6 concentration in supernatant ([1]; Donor 3, 100 (unit uncertain)): 694.6 pg/mL
- IL-2 concentration in supernatant ([1]; Donor 3, 200 (unit uncertain)): <LLOQ
- TNF-α concentration in supernatant ([1]; Donor 3, 200 (unit uncertain)): 4121.3 pg/mL
- IL-1β concentration in supernatant ([1]; Donor 3, 200 (unit uncertain)): 1478.91 pg/mL
- IFN-g concentration in supernatant ([1]; Donor 3, 200 (unit uncertain)): <LLOQ
- IL-6 concentration in supernatant ([1]; Donor 3, 200 (unit uncertain)): 426.3 pg/mL
- TNF-α, IL-1β, and/or IL-6 production, compound alone [2]: minor increases
